Data taken from patent US11278518B2, “Methods of treatment using 4-methylumbelliferone and derivatives thereof” (The Board of Trustees of the Leland Stanford Junior …, priority 2017, dated 2022).
Entries after “also recorded” stand apart in the source; their conditions may differ.

Key:
[1] = system: HA synthesis; test: Hyaluronan (HA) ELISA of B16F10 cell cultures, inhibition of HA synthesis; type: cell-based, murine; details: cells cultured 24-72 hours, HA in ELISA-like assay, normalized
Description: B16F10 is a murine melanoma cell line. […] The cells were cultured at 37° C. temperature and an atmosphere of 95% air and 5% carbon dioxide. Cells were cultured in DMEM plus 10% FBS. For the 4-MUG ester experiments, cells were seeded in 48-well plates, at a density of 10,000 cells per well and cultured for 24-72 hours. 4-MU, 4-MUG and the 4-MUG esters were diluted 1:1000 from their stock concentration and added to the cell medium in their final μM concentrations. For the analysis, the cells and the cell supernatant were collected at the end of each experiment and stored at −20° C. until further use. 48-well plates from previous experiments were thawed and 200 μL cell lysis buffer was added to each well. Cells were incubated for 15 minutes at room temperature. The whole lysate was transferred into a 96-well v-bottom plate and centrifuged at 3500 g for 20 minutes at 4° C. After spinning 25 μL from each well was transferred into a flat-bottom 96-well plate and stored until further use. Cell lysis buffer contains Tris-HCl, EDTA, SDS, MgCl2 and Super Nucleasis®. Protein measurement was performed by using the Pierce BCA Protein Assay Kit® (Thermo Scientific) according to the manufacturer instructions. The BCA Protein assay is based on bicinchoninic acid (BCA) for the colorimetric detection and quantitation of total protein. This method combines a biuret reaction (reduction of Cu2+ to Cu1+ by protein in an alkaline medium) with a highly and selective colorimetric detection of the cuprous cation (Cu1+) with the help of bicinchoninic acid. A purple-colored reaction product is formed by the chelation of two BCA molecules with one cuprous ion. This complex has a strong absorbance at 562 nm. The identification of HA in the samples is achieved by utilizing a highly specific HA binding protein (HABP) probe that interacts with HA. […] The HA concentration in the tissue is determined by using an ELISA-like assay. […] The plate was read at 405 nm and the concentrations were calculated according to the standards.

[2] = system: FoxP3+ regulatory T-cells; test: Induction of FoxP3+ regulatory T-cells in vivo; details: mice
Description: (§1) The 4-MU (Alfa Aesar) was pressed into the mouse chow by TestDiet® and irradiated before shipment. This chow formulation delivered 250 mg/mouse/day, yielding a serum drug concentration of 640.3±17.2 nmol/L in mice, as measured by HPLC-MS. 4-MUG (ChemImpex) was distributed in the drinking water of the mice at a 5% concentration which should deliver 0.325 mg/mouse/day, yielding a serum drug concentration of 357.1±72.6 ng/mL in mice, as measured by HPLC-MS. Mice were initiated on 4-MU and 4-MUG at five, eight or twelve weeks of age, unless otherwise noted, and were maintained on this diet until they were euthanized, unless otherwise noted. For analysis of Foxp3+ regulatory T cell numbers in naïve mice, mice were treated daily with 0.5 mg of 4-MU or 1.0 mg 4-MUG in 200 μl 0.08% carboxymethylcellulose in saline by intraperitoneal (i.p.) injection.

[3] = Serum drug concentration in mice by HPLC-MS; type: in vivo; details: 4-MUG in drinking water at 5%, 0.325 mg/mouse/day
Description: as §1, with “([…])” for “(ChemImpex)”

[4] = after 6 months of treatment; cited from earlier work
[5] = system: DORmO mice; test: Onset of diabetes in DORmO mice; type: in vivo
Excerpt: In proof-of-principle studies, 12 candidate esters of 4-MU and 4 candidate esters of 4-MUG were generated and the conversion of these compounds into 4-MU in buffer containing bovin serum was examined. […] Compounds A and B were individually administered to 8 week old DORmO mice. Compound B, butyl-4-MUG, delayed diabetes onset by one month when compared to Compound A. In contrast, mice fed Compound A, ethyl-4-MUG, developed diabetes at 12 weeks of age, at the same time as untreated DORmO mice. […] Briefly, to determine that HA accumulates in the pancreatic islets and creates a permissive environment for autoimmune attacks during autoimmune diabetes disease progression, the DORmO double transgenic mouse model of autoimmune diabetes was used. DORmO mice predictably develop autoimmune diabetes because they are bred to have both a target antigen on their insulin producing beta-cells as well as an immune system that specifically recognizes that antigen. DORmO mice are the result of a cross between RIPmOVA mice (a strain that carries a gene specific for hen egg ovalbumin (OVA) that is only expressed on beta-cells, emulating the auto-antigen) and DO11.10 mice (a strain that carries a T-cell receptor transgene specific for OVA, emulating auto-reactive CD4+ T cells). DORmO mice spontaneously develop autoimmune insulitis starting at four weeks of age and all animals become diabetic (hyperglycemia >200 mg/dl) by 20 weeks of age (Wesley, J. D., et al., J. Immunol. 185, 4760-4768 (2010). Beginning at four weeks of age, mice were weighed weekly as well as bled via the tail vein for the determination of their blood glucose level using a Contour blood glucose meter and blood glucose monitoring strips (Bayer Healthcare). When two consecutive blood glucose readings of 250 mg/dL were recorded, animals were considered diabetic. When two consecutive blood glucose readings of 300 mg/dL were recorded, animals were euthanized. For the in vivo part the oral delivery in the drinking water was the same as for 4-MUG. […]

[6] = in vivo, cited from earlier work
[7] = system: acute lung injury; details: 4-MU treatment; cited from earlier work
[8] = system: obese, diabetic mice; details: 4-MU treatment; cited from earlier work
[9] = system: collagen-induced arthritis model; details: 4-MU treatment; cited from earlier work
[10] = system: EAE; details: 4-MU treatment; cited from earlier work
[11] = system: ApoE-deficient mice; details: 4-MU treatment, high-fat diet; cited from earlier work
[12] = system: DORmO and NOD mouse models; details: 4-MU treatment; cited from earlier work
[13] = system: Biliary Duct Ligation (BDL) model; details: 4-MU; cited from earlier work

Cc1cc(=O)oc2cc(O[C@@H]3O[C@H](C(=O)O)[C@@H](O)[C@H](O)[C@H]3O)ccc12 [Compound 4-MUG, 4-methylumbelliferone glucuronide]
inhibition of HA synthesis [1]: inhibits HA synthesis by human cell lines as well as 4-MU; also recorded: inhibits HA synthesis as effectively as 4-MU | fraction of Foxp3+ regulatory T-cells (induction) [2]: also has this property in vivo; also recorded: does increase; also recorded: increases | numbers of CD3+ T-cells [2]: does not increase | numbers of CD4+ T-cells [2]: does not increase | numbers of CD25+ T-cells [2]: does not increase | serum drug concentration [3]: 0.3571 ± 0.0726 µg/mL

C[C@H](CCC(=O)O)[C@H]1CC[C@H]2[C@@H]3[C@@H](O)C[C@@H]4C[C@H](O)CC[C@]4(C)[C@H]3CC[C@]12C [UDCA, ursodeoxycholic acid]
bile concentration of UDCA [4]: up to 70%

CCCCOC(=O)C1O[C@@H](Oc2ccc3c(C)cc(=O)oc3c2)C(O)[C@H](O)[C@@H]1O (stereo partly drawn) [Compound B]
inhibition of HA synthesis [1]: best inhibited HA synthesis in vitro | onset of diabetes ([5]; at 1/100th the dose of 4-MU): delays the onset of diabetes

Cc1cc(=O)oc2cc(O)ccc12 [Compound 4-MU, 4-methylumbelliferone]
protection from diabetes ([5]; 0.65% 4-MU (approximately 10x less)): only partially protective | bioavailability ([6]; first-pass glucuronidation): 2-3% | extraction by the liver [6]: ≤ 97% | lung injury [7]: decreased or prevented lung injury | glycemia [8]: restores normoglycemia | disease scores [9]: improved disease scores | EAE disease [10]: prevent and treat disease; also recorded: limit the progression | atherosclerosis [11]: worse atherosclerosis | progression of autoimmune diabetes [12]: limit the progression | fibrosis [13]: reduce fibrosis

CCOC(=O)C1O[C@@H](Oc2ccc3c(C)cc(=O)oc3c2)C(O)[C@H](O)[C@@H]1O (stereo partly drawn) [Compound A, 4-methylumbelliferyl β-D-glucuronide ethyl ester]
inhibition of HA synthesis [1]: best inhibited HA synthesis in vitro | age at which mice developed diabetes ([5]; 8 week old DORmO mice, 0.05% in drinking water): 12 weeks
